Results from US5451522A, “Genes encoding and method of expressing an enzyme: phthalyl amidase” (priority 1994, dated 1995).
Entries after “also recorded” stand apart in the source; their conditions may differ. Each block holds one compound with its values, some of them ahead of it.

Key:
phthalyl amidase [1] = target: T1, phthalyl amidase (Xanthobacter agilis, UniProt P0C2Y0); test: Influence of effectors and organic solvents on enzyme activity; assay type: biochemical; conditions: for remaining activity at 1000 µM / % of Control Activity: agent at 1 mM final concentration; for remaining activity at 1000 µM: read-out: % of Control Activity; for effect on enzyme activity (in words): 1 mM unless otherwise indicated, iodoacetic acid 10 mM
T1 construct: 42-aa signal peptide removed
T1 sequence (P0C2Y0 2-453): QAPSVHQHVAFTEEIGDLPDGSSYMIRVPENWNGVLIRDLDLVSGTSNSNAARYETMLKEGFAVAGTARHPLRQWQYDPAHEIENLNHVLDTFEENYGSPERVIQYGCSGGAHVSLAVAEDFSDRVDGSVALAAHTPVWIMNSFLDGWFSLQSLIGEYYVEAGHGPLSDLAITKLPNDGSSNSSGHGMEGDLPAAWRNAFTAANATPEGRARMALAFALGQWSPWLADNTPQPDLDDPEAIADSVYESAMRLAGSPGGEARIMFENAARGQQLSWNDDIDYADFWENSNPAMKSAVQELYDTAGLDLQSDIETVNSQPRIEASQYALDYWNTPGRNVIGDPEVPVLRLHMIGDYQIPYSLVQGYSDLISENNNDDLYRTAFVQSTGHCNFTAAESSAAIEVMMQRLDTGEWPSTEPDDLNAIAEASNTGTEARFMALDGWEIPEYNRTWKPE
Experimental: A typical reaction mixture consisted of 1 ml total volume and contained 0.1 mM III, 0.1 μM phthalyl amidase in 50 mM potassium phosphate buffer (pH 5.5-9.0) at 32° C. for 20 minutes. The reactions were stopped by the addition of 1 ml methanol. After removal of precipitate by centrifugation, an aliquot of the supernatant fraction (typically 30 μ) was monitored for the beta-lactam nucleus and phthalic acid by HPLC using a Zorbax C8 column (0.46×15 cm; MacMod Analytical Inc., Chadds Ford, Pa.). The two reaction products were eluted by a mobile phase constructed as continuous mixed gradients from (a) 1% ACN (acetonitrile)/0.2% TFA (trifluoroacetic acid) and (b) 80% ACN/0.2% TFA as follows: 1) 0% (b), 3 min; 2) 0-50% (b), 0.5 min; 3) 50-100% (b), 3 min; 4) 100% (b), 2.5 min; 5) 100-0% (b), 0.1 min; and 6) 0% (b), 5 min.
The effect of various agents on the enzymatic activity of phthalyl amidase was determined using standard conditions (see Example 5). All agents were tested at 1 mM final concentration unless otherwise indicated.

Xanthobacter agilis = test: Induction of phthalyl amidase in Xanthobacter agilis cultures; assay type: cell-based; conditions: for Total units/mg protein: cell-free lysate, chromogenic substrate II; for Cell weight: 48 hours growth in Bac MI medium
Experimental: Three compounds at different concentrations were added to aerated cultures of the organism growing at 30° C. in Bac MI medium. The compounds tested were phthalate (PAA), phthalyl glycine (PAG), and PMBL. Cells of Xanthobacter agilis were grown with aeration for 24 hours. This vegetative culture was used to inoculate Bac MI medium (50 ml) containing different concentrations of the compounds to be tested. After 48 hours growth under standard conditions, cells were harvested by centrifugation and wet weight of the cells was determined. Crude cell extracts were prepared by lysozyme treatment of the cells as in Example 1. Suspensions were briefly sonicated to break up the viscous suspension. A cell-free supernatant was obtained by centrifugation of the suspension at 14,000 rpm for 15 minutes.
Enzyme activity in cell-free lysates was determined by monitoring conversion of the chromogenic substrate 4-(2'-carboxy-N-benzoyl)amino-2-carboxy-nitrobenzene (II) to 2-nitro-5-amino benzoic acid and phthalic acid, a reaction catalyzed by phthalyl amidase as shown below: [drawing 4]
The assay reaction mixture (1 ml) consisted of 0.3 μmol of the chromogenic substrate (II) and 0.001-0.5 μg of enzyme preparation in 50 mM potassium phosphate buffer, pH 8.0 (buffer A). The enzymatic reaction was conducted at 30° C. for 10 minutes and the appearance of product was monitored at 380 nm (or 430 nm). The amount of substrate hydrolyzed was calculated from a standard curve of the amine product.

phthalyl amidase [2] = target: T1, phthalyl amidase; test: Substrate specificity: chemical structure requirements for enzyme activity; assay type: biochemical; conditions: for Relative Activity: 2.5 μmol compound, 0.3 units enzyme; for suitability as substrate (in words): Tables 10 and 11
Experimental: The activity of phthalyl amidase against 25 compounds was determined. The compounds were divided into beta-lactams (Table 9), phthalyl amides (Table 10), and aromatic ring substituted amides (Table 11). Each reaction mixture (1 ml total volume) contained 2.5 μmol of compound and 0.3 units of enzyme (based on the chromogenic substrate) of the preparative scale purified enzyme, in 50 mM phosphate buffer, pH 8.0. The reactions were conducted at 30° C. Samples of the reaction mixture were taken at various times, and methanol (equal volume) was added to stop the reaction. The samples were examined by HPLC to determine the extent of substrate hydrolysis. The amount of compound hydrolyzed was calculated from a standard curve of the test compound. All substrates were stable in buffer at 30° C. and pH 8.0 in the absence of enzyme for 24 hours.

[3] = Table 9 beta-lactams, III = 100, 50 mM phosphate pH 8.0, 30° C.
[4] = Table 11 aromatic ring substituted amides, XVII = 100.0, pH 8.0, 30° C.

SMILES: NC(=O)C1=CN([C@@H]2O[C@H](COP(=O)(O)OP(=O)(O)OC[C@H]3O[C@@H](n4cnc5c(N)ncnc54)[C@H](OP(=O)(O)O)[C@@H]3O)[C@@H](O)[C@H]2O)C=CC1 [NADPH]
remaining activity at 1000 µM (phthalyl amidase [1]): 99%

SMILES: CCN1C(=O)C=CC1=O [NEM, Nethylmaleimide]
remaining activity at 1000 µM (phthalyl amidase [1]): 100%

SMILES: [Cl][Ni][Cl] [NiCl2]
% of Control Activity (phthalyl amidase [1]): 94%

SMILES: O=C(O)c1ccccc1C(=O)O [PAA, phthalate]
Units/g cells (Xanthobacter agilis; inducer addition 1 mg/ml): 3.9 Units/g cells
Total units/mg protein (Xanthobacter agilis; inducer addition 1 mg/ml): 1.4 µmol/min/mg
Units/g cells (Xanthobacter agilis; inducer addition 2 mg/ml): 9.3 Units/g cells
Total units/mg protein (Xanthobacter agilis; inducer addition 2 mg/ml): 4.3 µmol/min/mg
Units/g cells (Xanthobacter agilis; inducer addition 5 mg/ml): 5.5 Units/g cells
Cell weight (Xanthobacter agilis; inducer addition 5 mg/ml): 0.7 g/50 ml
Total units/mg protein (Xanthobacter agilis; inducer addition 5 mg/ml): 3.7 µmol/min/mg
Units/g cells (Xanthobacter agilis; inducer addition 10 mg/ml): 19.8 Units/g cells
Cell weight (Xanthobacter agilis; inducer addition 10 mg/ml): 0.6 g/50 ml
Total units/mg protein (Xanthobacter agilis; inducer addition 10 mg/ml): 12.0 µmol/min/mg

SMILES: Cc1ncc(COP(=O)(O)O)c(C=O)c1O [PLP, pyridoxyl5-phosphate]
remaining activity at 1000 µM (phthalyl amidase [1]): 106%

SMILES: c1cnc2c(c1)ccc1cccnc12 [Phenanthroline]
effect on enzyme activity (in words) (phthalyl amidase [1]): little or no effect
remaining activity at 1000 µM (phthalyl amidase [1]): 104%

SMILES: Nc1nc2c(c(=O)[nH]1)N[C@H](CNc1ccc(C(=O)N[C@@H](CCC(=O)O)C(=O)O)cc1)CN2 [THF, tetrahydrofolate]
remaining activity at 1000 µM (phthalyl amidase [1]): 100%

SMILES: O=C(O)CN1C(=O)C(NC(=O)c2ccccc2)C1CCc1ccco1 (stereo not shown) [VI]
Relative Activity (phthalyl amidase [2]; [3]): 0

SMILES: O=C(O)CN1C(=O)C(NC(=O)Cc2ccccc2)C1CCc1ccco1 (stereo not shown) [V]
Relative Activity (phthalyl amidase [2]; [3]): 0

SMILES: CC(C)NC(=O)c1ccccc1C(=O)O [XII]
Relative Activity (phthalyl amidase [2]; Table 10 phthalyl amides, III = 100.0, 50 mM phosphate pH 8.0, 30° C.): 9.7

SMILES: CCCCCCC(C(=O)O)n1cnc(NC(=O)c2cc(O)cc(O)c2)c1 (stereo not shown) [XXVII]
Relative Activity (phthalyl amidase [2]; [4]): 0

SMILES: [Cl-].[Cl-].[Zn+2] [ZnCl2]
% of Control Activity (phthalyl amidase [1]): 100%

SMILES: O=C(O)c1cc[c]([Hg][OH])cc1 [p-HMB, parahydroxy mercuric benzoate]
effect on enzyme activity (in words) (phthalyl amidase [1]): significantly reduced; also recorded: significantly inhibited
% of Control Activity (phthalyl amidase [1]): 65%

The next lines start with results.

suitability as substrate (in words) (phthalyl amidase [2]): most active compound found
SMILES: CCCCCCC(C(=O)O)n1cnc(NC(=O)c2ccccc2C(=O)O)c1 (stereo not shown) [XIII]

Relative Activity (phthalyl amidase [2]; [4]): 100.0
SMILES: CCCCCCC(C(=O)O)n1cnc(NC(=O)c2ccccc2C(=O)O)c1 (stereo not shown) [XVII]

Relative Activity (phthalyl amidase [2]; [4]): 0
SMILES: CCCCCCC(C(=O)O)n1cnc(NC(=O)c2ccc(C(=O)O)cc2)c1 (stereo not shown) [XXIII]
suitability as substrate (in words) (phthalyl amidase [2]): completely eliminates hydrolytic activity

Relative Activity (phthalyl amidase [2]; [4]): 0.2
suitability as substrate (in words) (phthalyl amidase [2]): Low levels of hydrolysis
SMILES: CCCCCCC(C(=O)O)n1cnc(NC(=O)c2ccccc2-c2nn[nH]n2)c1 (stereo not shown) [XXII]

Relative Activity (phthalyl amidase [2]; [4]): 0
SMILES: CCCCCCC(C(=O)O)n1cnc(NC(=O)c2cccc(C(=O)O)c2)c1 (stereo not shown) [XXIV]
suitability as substrate (in words) (phthalyl amidase [2]): completely eliminates hydrolytic activity

Relative Activity (phthalyl amidase [2]; [4]): 1.3
suitability as substrate (in words) (phthalyl amidase [2]): acceptable
SMILES: CCCCCCC(C(=O)O)n1cnc(NC(=O)c2cccc(O)c2C(=O)O)c1 (stereo not shown) [XXI]

Relative Activity (phthalyl amidase [2]; [4]): 0
SMILES: CCCCCCC(C(=O)O)n1cnc(NC(=O)c2ccccc2)c1 (stereo not shown) [XXVIII]

Relative Activity (phthalyl amidase [2]; [4]): 0
SMILES: CCCCCCC(C(=O)O)n1cnc(NC(=O)c2cccc(O)c2)c1 (stereo not shown) [XXVI]

Relative Activity (phthalyl amidase [2]; [4]): 0
SMILES: CCCCCCC(C(=O)O)n1cnc(NC(=O)c2ccccc2O)c1 (stereo not shown) [XXV]
